The values that follow come from ChEMBL document CHEMBL1921781, “Antibacterial and antitubercular activity of fosmidomycin, FR900098, and their lipophilic analogs” (2011).

What all share (assay type): functional
The test system of experiment [1] is Mycobacterium tuberculosis. Nature of the experiment: Antitubercular activity against Mycobacterium tuberculosis H37Rv after 7 days by microbroth dilution method. The following applies: 168 h. Background: Dilution methods test growth across graded concentrations, often in twofold steps.
In a further experiment the test system is Bacillus anthracis. Briefly: Antibacterial activity against Bacillus anthracis after overnight incubation by microbroth dilution method.
The subject of experiment [2] is Escherichia coli. Briefly: Antibacterial activity against Escherichia coli expressing TolC after overnight incubation by microbroth dilution method.
Experiment [3] relates to Staphylococcus aureus. Briefly: Antibacterial activity against methicillin-susceptible Staphylococcus aureus after overnight incubation by microbroth dilution method.
In the next experiment the test system is Acinetobacter. Briefly: Antibacterial activity against Acinetobacter after overnight incubation by microbroth dilution method.
Experiment [4] concerns Escherichia coli. Nature of the experiment: Antibacterial activity against Escherichia coli K-12 after overnight incubation by microbroth dilution method.
For the next experiment, the system named is Enterococcus faecalis. Briefly: Antibacterial activity against Enterococcus faecalis after overnight incubation by microbroth dilution method.
The subject of experiment [5] is Staphylococcus aureus. Nature of the experiment: Antibacterial activity against methicillin-resistant Staphylococcus aureus after overnight incubation by microbroth dilution method.

What is called MIC is the least concentration at which growth counts as inhibited. A lower MIC goes with a more susceptible organism.

Values after ≈ are worked out from the molar mass of the structure shown. Some results are limits rather than exact numbers.

With `CC(=O)N(O)CCCP(=O)([O-])O.[Na+]`, the minimal inhibitory concentration (MIC) in experiment [1] was above 500 µg/mL; against Bacillus anthracis, 50 µg/mL; against Escherichia coli [2], 12.5 µg/mL; against Staphylococcus aureus [3], above 200 µg/mL; in the experiment on Acinetobacter it was 50 µg/mL; with Escherichia coli [4], 200 µg/mL. The MIC with Enterococcus faecalis was above 200 µg/mL; with Staphylococcus aureus [5], 50 µg/mL.
Take `CCOP(=O)(CCCN(O)C=O)OCC`: the MIC in experiment [1] is 400 µg/mL (≈ 1670 µM); in the experiment on Bacillus anthracis, above 200 µg/mL; against Escherichia coli [2], above 200 µg/mL; in the experiment on Staphylococcus aureus [3] it was above 200 µg/mL; against Acinetobacter, above 200 µg/mL; in the experiment with Escherichia coli [4], above 200 µg/mL. Further, the MIC with Enterococcus faecalis and against Staphylococcus aureus [5] was above 200 µg/mL each time.
With `CCOP(=O)(CCCN(O)C(C)=O)OCC`, the MIC in experiment [1] was 200 µg/mL (≈ 790 µM); in the experiment on Bacillus anthracis it was 200 µg/mL (≈ 790 µM); against Escherichia coli [2], above 200 µg/mL; in the experiment on Staphylococcus aureus [3], above 200 µg/mL; against Acinetobacter, above 200 µg/mL; against Escherichia coli [4], above 200 µg/mL. The MIC was above 200 µg/mL with Enterococcus faecalis and 200 µg/mL (≈ 790 µM) with Staphylococcus aureus [5].
Turning to `CC(=O)N(O)CCCP(=O)(OC(C)C)OC(C)C`, the MIC in experiment [1] was 400 µg/mL (≈ 1420 µM); against Bacillus anthracis, above 200 µg/mL; against Escherichia coli [2], above 200 µg/mL; with Staphylococcus aureus [3] it was above 200 µg/mL; in the experiment with Acinetobacter it was above 200 µg/mL; against Escherichia coli [4] it was above 200 µg/mL. Besides, the MIC with Enterococcus faecalis and in the experiment with Staphylococcus aureus [5] was above 200 µg/mL in each case.
Regarding `CCCCCCOP(=O)(CCCN(O)C(C)=O)OCCCCCC`, in experiment [1], it took 100 µg/mL (≈ 274 µM) to inhibit growth (MIC).
With `CCOC(=O)OC(C)OP(=O)(CCCN(O)C(C)=O)OC(C)OC(=O)OCC` (stereo not drawn), the MIC in experiment [1] is 400 µg/mL (≈ 932 µM); with Bacillus anthracis, above 200 µg/mL; with Escherichia coli [2] it was 200 µg/mL (≈ 466 µM); in the experiment with Staphylococcus aureus [3], above 200 µg/mL; in the experiment on Acinetobacter, above 200 µg/mL; with Escherichia coli [4] it was above 200 µg/mL. Moreover, the MIC with Enterococcus faecalis and against Staphylococcus aureus [5] was above 200 µg/mL throughout.
With `CC(=O)N(O)CCCP(=O)(OCC(=O)OC(C)(C)C)OCC(=O)OC(C)(C)C`, the MIC in experiment [1] was 400 µg/mL (≈ 940 µM); against Bacillus anthracis, above 200 µg/mL; against Escherichia coli [2] it was above 200 µg/mL; against Staphylococcus aureus [3], 100 µg/mL (≈ 235 µM); in the experiment with Acinetobacter, above 200 µg/mL; in the experiment on Escherichia coli [4], above 200 µg/mL. Besides, the MIC against Enterococcus faecalis is above 200 µg/mL; in the experiment on Staphylococcus aureus [5], 25 µg/mL (≈ 58.8 µM).
As for `CC(=O)N(O)CCCP(=O)(OC(C)OC(=O)OC(C)(C)C)OC(C)OC(=O)OC(C)(C)C` (stereo not drawn), the MIC is 400 µg/mL (≈ 824 µM) in experiment [1]; 200 µg/mL (≈ 412 µM) with Bacillus anthracis; above 200 µg/mL against Escherichia coli [2]; 100 µg/mL (≈ 206 µM) in the experiment on Staphylococcus aureus [3]; above 200 µg/mL in the experiment with Acinetobacter; above 200 µg/mL in the experiment with Escherichia coli [4]. Further, the MIC was above 200 µg/mL in the experiment with Enterococcus faecalis and 50 µg/mL (≈ 103 µM) with Staphylococcus aureus [5].
Regarding `CC(=O)N(O)CCCP(=O)(OCOC(=O)c1ccccc1)OCOC(=O)c1ccccc1`, the minimum inhibitory concentration (MIC) was 25 µg/mL (≈ 53.7 µM) in experiment [1]; 100 µg/mL (≈ 215 µM) in the experiment on Bacillus anthracis; 50 µg/mL (≈ 107 µM) in the experiment with Escherichia coli [2]; above 200 µg/mL against Staphylococcus aureus [3]; 200 µg/mL (≈ 430 µM) in the experiment with Acinetobacter; above 200 µg/mL with Escherichia coli [4]. Further, the MIC against Enterococcus faecalis and against Staphylococcus aureus [5] was above 200 µg/mL in each case.
For the compound `CC(=O)N(O)CCCP(=O)(OC(C)OC(=O)c1ccccc1)OC(C)OC(=O)c1ccccc1` (stereo not drawn), the MIC in experiment [1] is 100 µg/mL (≈ 203 µM); with Bacillus anthracis it was 50 µg/mL (≈ 101 µM); in the experiment with Escherichia coli [2], 50 µg/mL (≈ 101 µM); against Staphylococcus aureus [3] it was above 200 µg/mL; in the experiment on Acinetobacter, 100 µg/mL (≈ 203 µM); against Escherichia coli [4] it was 50 µg/mL (≈ 101 µM). The compound also yielded an MIC with Enterococcus faecalis above 200 µg/mL.
Consider `CC(=O)N(O)CCCP(=O)(OCOC(=O)C(C)(C)C)OCOC(=O)C(C)(C)C`, for which the MIC in experiment [1] is 50 µg/mL (≈ 118 µM); against Bacillus anthracis, 200 µg/mL (≈ 470 µM); in the experiment with Escherichia coli [2], 100 µg/mL (≈ 235 µM); in the experiment on Staphylococcus aureus [3] it was 100 µg/mL (≈ 235 µM); in the experiment with Acinetobacter it was above 200 µg/mL; in the experiment with Escherichia coli [4] it was above 200 µg/mL. Moreover, the MIC against Enterococcus faecalis is above 200 µg/mL; with Staphylococcus aureus [5] it was 50 µg/mL (≈ 118 µM).
As to `O=CN(O)CCCP(=O)(O)O` [FOSMIDOMYCIN], the MIC in experiment [1] was above 500 µg/mL; with Bacillus anthracis it was 0.78 µg/mL (≈ 4.26 µM); against Escherichia coli [2], 6.25 µg/mL (≈ 34.1 µM); against Staphylococcus aureus [3], above 200 µg/mL; against Acinetobacter it was 100 µg/mL (≈ 546 µM); against Escherichia coli [4], 12.5 µg/mL (≈ 68.3 µM). For the same compound, the MIC is above 200 µg/mL with Enterococcus faecalis and 200 µg/mL (≈ 1090 µM) in the experiment with Staphylococcus aureus [5].
